For one experiment, the target named is T1, human σ1 receptor (Homo sapiens, UniProt Q99720).
T1 construct: expressed in transfected cells; host or cells: HEK-293
The experiment can be described thus: Human σ1 receptor radioligand assay ([3H](+)-pentazocine, transfected HEK-293 membranes). The conditions noted are these: class scale, read-out: Binding σ-1 Ki. A digest of the protocol: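 Membranes (7 μg) from transfected HEK-293 cells were incubated with 5 nM [3H](+)-pentazocine in 50 mM Tris-HCl, pH 8, for 120 minutes at 37° C, with 10 μM haloperidol defining non-specific binding. Bound radioactivity was filtered and counted by scintillation. Results are % inhibition at 1 or 10 μM or Ki from five concentrations.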

In another experiment the target is T2, human σ2/TMEM97 receptor (Homo sapiens, UniProt Q5BJF2).
T2 construct: expressed in transfected cells; host or cells: HEK-293
The experiment can be described thus: Binding assay to human σ2/TMEM97 receptor ([3H]-DTG, transfected HEK-293 membranes). The conditions noted are these: class scale, read-out: Binding σ-2 Ki. A digest of the protocol:
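Membranes (15 μg) from transfected HEK-293 incubated 120 min at 25 °C with 10 nM [3H]-DTG in 50 mM Tris-HCl pH 8.0; nonspecific binding with 10 μM haloperidol. Filtration and scintillation counting; % inhibition at 1 or 10 μM, or Ki from five concentrations.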

Our source for the Ki values is US20240239781A1, “1H-PYRAZOLE DERIVATIVES AS SIGMA LIGANDS” (ACONDICIONAMIENTO TARRASENSE, priority 2021, published 2024).

T2 sequence (Q5BJF2 whole entry): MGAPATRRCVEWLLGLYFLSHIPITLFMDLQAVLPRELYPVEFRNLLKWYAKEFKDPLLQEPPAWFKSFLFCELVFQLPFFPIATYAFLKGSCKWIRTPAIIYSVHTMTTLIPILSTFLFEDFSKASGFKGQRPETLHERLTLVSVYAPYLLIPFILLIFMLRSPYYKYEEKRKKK
T1 sequence (Q99720 whole entry): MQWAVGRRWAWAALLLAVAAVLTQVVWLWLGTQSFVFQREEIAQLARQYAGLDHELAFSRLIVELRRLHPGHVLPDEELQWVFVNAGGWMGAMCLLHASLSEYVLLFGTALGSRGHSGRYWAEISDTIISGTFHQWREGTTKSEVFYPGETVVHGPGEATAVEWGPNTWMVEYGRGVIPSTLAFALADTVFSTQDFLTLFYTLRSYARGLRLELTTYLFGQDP

Regarding `Cc1cc(-c2nn(C)c(Cl)c2C(=O)N2CC[C@]3(C2)C[C@@H](NCCC(C)(C)C)C3)no1` [Example 123, (5-Chloro-1-methyl-3-(5-methylisoxazol-3-yl)-1H-pyrazol-4-yl)((2r,4s)-2-((3,3-dimethylbutyl)amino)-6-azaspiro[3.4]octan-6-yl)methanone], the results for the inhibitory constant (Ki) at human σ1 receptor and on human σ2/TMEM97 receptor were more than 1 µM and less than 0.1 µM, respectively.

For `Cn1nc(-c2cccc(O)n2)c(C(=O)N2CCC3(CCN(CCC(C)(C)C)CC3)CC2)c1Cl` [Example 124, (5-Chloro-3-(6-hydroxypyridin-2-yl)-1-methyl-1H-pyrazol-4-yl)(9-(3,3-dimethylbutyl)-3,9-diazaspiro[5.5]undecan-3-yl)methanone], the results for the inhibition constant Ki on human σ1 receptor and at human σ2/TMEM97 receptor were more than 1 µM and 0.1 to 0.5 µM, respectively.

As for `Cc1cc(-c2nn(C)c(Cl)c2C(=O)N2CCC[C@H](CNCCC(C)C)C2)no1` [Example 125, (R)-(5-Chloro-1-methyl-3-(5-methylisoxazol-3-yl)-1H-pyrazol-4-yl)(3-((isopentylamino)methyl)piperidin-1-yl)methanone], the Ki (in general, a dissociation constant, usually derived from enzyme kinetics or from competition with a known ligand) is more than 1 µM at human σ1 receptor and 0.5 to 1 µM at human σ2/TMEM97 receptor.

Consider `Cc1cc(-c2nn(C)c(Cl)c2C(=O)N2CCC[C@@H](CNCCC(C)C)C2)no1` [Example 126, (S)-(5-Chloro-1-methyl-3-(5-methylisoxazol-3-yl)-1H-pyrazol-4-yl)(3-((isopentylamino)methyl)piperidin-1-yl)methanone], for which the inhibition constant (Ki) at human σ1 receptor and on human σ2/TMEM97 receptor was more than 1 µM in each case.

For `CCn1nc(-c2cc(C)on2)c(C(=O)NC2CC3(CCN(CCC(C)(C)C)CC3)C2)c1Cl` [Example 127, 5-Chloro-N-(7-(3,3-dimethylbutyl)-7-azaspiro[3.5]nonan-2-yl)-1-ethyl-3-(5-methylisoxazol-3-yl)-1H-pyrazole-4-carboxamide], the Ki at human σ1 receptor and on human σ2/TMEM97 receptor was less than 0.1 µM in each case.

As to `Cc1cc(-c2nn(C)c(Cl)c2C(=O)N2CCCC3(CCN(Cc4ccc(F)c(F)c4)CC3)C2)no1` [Example 128, (5-Chloro-1-methyl-3-(5-methylisoxazol-3-yl)-1H-pyrazol-4-yl)(9-(3,4-difluorobenzyl)-2,9-diazaspiro[5.5]undecan-2-yl)methanone], the Ki at human σ1 receptor was 0.1 to 0.5 µM; at human σ2/TMEM97 receptor, less than 0.1 µM.

Consider `Cc1cc(-c2nn(C)c(Cl)c2C(=O)N2CCC3(CCN(Cc4ccc(F)cc4)CC3)CC2)no1` [Example 129, (5-Chloro-1-methyl-3-(5-methylisoxazol-3-yl)-1H-pyrazol-4-yl)(9-(4-fluorobenzyl)-3,9-diazaspiro[5.5]undecan-3-yl)methanone], for which the inhibition constant Ki at human σ1 receptor was 0.1 to 0.5 µM; on human σ2/TMEM97 receptor, less than 0.1 µM.

Take `Cc1cc(-c2nn(C)c(Cl)c2C(=O)N2CCC3(CCN(Cc4ccc(F)c(F)c4)CC3)CC2)no1` [Example 130, (5-Chloro-1-methyl-3-(5-methylisoxazol-3-yl)-1H-pyrazol-4-yl)(9-(3,4-difluorobenzyl)-3,9-diazaspiro[5.5]undecan-3-yl)methanone]: the inhibition constant (Ki) on human σ1 receptor fell in the range of 0.5 to 1 µM; at human σ2/TMEM97 receptor it was 0.1 to 0.5 µM.

Consider `Cc1cc(-c2nn(C)c(Cl)c2C(=O)N2CCC3(CCN(Cc4ccc(C#N)c(F)c4)CC3)CC2)no1` [Example 131, 4-((9-(5-Chloro-1-methyl-3-(5-methylisoxazol-3-yl)-1H-pyrazole-4-carbonyl)-3,9-diazaspiro[5.5]undecan-3-yl)methyl)-2-fluorobenzonitrile], for which the Ki at human σ1 receptor and on human σ2/TMEM97 receptor was 0.5 to 1 µM each time.

`CC(C)c1cc(-c2nn(C)c(Cl)c2C(=O)N2CCCC3(CCN(CCC(C)(C)C)CC3)C2)no1` [Example 132, (5-Chloro-3-(5-isopropylisoxazol-3-yl)-1-methyl-1H-pyrazol-4-yl)(9-(3,3-dimethylbutyl)-2,9-diazaspiro[5.5]undecan-2-yl)methanone]: the Ki was 0.1 to 0.5 µM on human σ1 receptor and less than 0.1 µM on human σ2/TMEM97 receptor.

For the compound `CCc1nc(C)c(-c2nn(C)c(Cl)c2C(=O)N2CCCC3(CCN(CCC(C)(C)C)CC3)C2)o1` [Example 133, (5-Chloro-3-(2-ethyl-4-methyloxazol-5-yl)-1-methyl-1H-pyrazol-4-yl)(9-(3,3-dimethylbutyl)-2,9-diazaspiro[5.5]undecan-2-yl)methanone], the Ki at human σ1 receptor was 0.5 to 1 µM; at human σ2/TMEM97 receptor, less than 0.1 µM.

For the compound `CCn1nc(-c2cc(C)on2)c(C(=O)NC2CCC3(CC2)CN(CCC(C)(C)C)C3)c1Cl` [Example 134, 5-Chloro-N-(2-(3,3-dimethylbutyl)-2-azaspiro[3.5]nonan-7-yl)-1-ethyl-3-(5-methylisoxazol-3-yl)-1H-pyrazole-4-carboxamide], the Ki on human σ1 receptor and at human σ2/TMEM97 receptor was less than 0.1 µM each time.

Take `Cn1cc(-c2nn(C)c(Cl)c2C(=O)N2CCCC3(CCN(CCC(C)(C)C)CC3)C2)cn1` [Example 135, (5-Chloro-1,1′-dimethyl-1H,1′H-[3,4′-bipyrazol]-4-yl)(9-(3,3-dimethylbutyl)-2,9-diazaspiro[5.5]undecan-2-yl)methanone]: the values for the inhibition constant (Ki) on human σ1 receptor and on human σ2/TMEM97 receptor were more than 1 µM and less than 0.1 µM, respectively.

As for `CCc1cc(-c2nn(CC)c(Cl)c2C(=O)NC2CC3(CCN(CCC(C)(C)C)CC3)C2)no1` [Example 136, 5-Chloro-N-(7-(3,3-dimethylbutyl)-7-azaspiro[3.5]nonan-2-yl)-1-ethyl-3-(5-ethylisoxazol-3-yl)-1H-pyrazole-4-carboxamide], the Ki on human σ1 receptor and at human σ2/TMEM97 receptor was less than 0.1 µM each time.

For `CCc1cc(-c2nn(CC)c(Cl)c2C(=O)NC2CCC3(CC2)CN(CCC(C)(C)C)C3)no1` [Example 137, 5-Chloro-N-(2-(3,3-dimethylbutyl)-2-azaspiro[3.5]nonan-7-yl)-1-ethyl-3-(5-ethylisoxazol-3-yl)-1H-pyrazole-4-carboxamide], the Ki at human σ1 receptor and at human σ2/TMEM97 receptor was less than 0.1 µM in each case.

For `CCn1ccc(-c2nn(C)c(Cl)c2C(=O)N2CCCC3(CCN(CCC(C)(C)C)CC3)C2)n1` [Example 138, (5-Chloro-1′-ethyl-1-methyl-1H,1′H-[3,3′-bipyrazol]-4-yl)(9-(3,3-dimethylbutyl)-2,9-diazaspiro[5.5]undecan-2-yl)methanone], the Ki on human σ1 receptor is 0.5 to 1 µM; at human σ2/TMEM97 receptor, less than 0.1 µM.

For `CCn1nc(-c2ccon2)c(C(=O)NC2CC3(CCN(CCC(C)(C)C)CC3)C2)c1Cl` [Example 139, 5-Chloro-N-(7-(3,3-dimethylbutyl)-7-azaspiro[3.5]nonan-2-yl)-1-ethyl-3-(isoxazol-3-yl)-1H-pyrazole-4-carboxamide], the results for the Ki at human σ1 receptor and at human σ2/TMEM97 receptor were 0.1 to 0.5 µM and less than 0.1 µM, respectively.

`Cn1cc(-c2nn(C)c(Cl)c2C(=O)NC2CC3(CCN(CCC(C)(C)C)CC3)C2)cn1` [Example 140, 5-Chloro-N-(7-(3,3-dimethylbutyl)-7-azaspiro[3.5]nonan-2-yl)-1,1′-dimethyl-1H,1′H-[3,4′-bipyrazole]-4-carboxamide]: the inhibition constant Ki on human σ1 receptor is 0.5 to 1 µM; at human σ2/TMEM97 receptor it was less than 0.1 µM.

On to `Cc1cccc(-c2nn(C)c(Cl)c2C(=O)NC2CC3(CCN(CCC(C)(C)C)CC3)C2)n1` [Example 141, 5-Chloro-N-(7-(3,3-dimethylbutyl)-7-azaspiro[3.5]nonan-2-yl)-1-methyl-3-(6-methylpyridin-2-yl)-1H-pyrazole-4-carboxamide], for which the Ki at human σ1 receptor and at human σ2/TMEM97 receptor was less than 0.1 µM throughout.

For `CCn1nc(-c2ccon2)c(C(=O)NC2CCC3(CC2)CCN(CCC(C)(C)C)CC3)c1Cl` [Example 142, 5-Chloro-N-(3-(3,3-dimethylbutyl)-3-azaspiro[5.5]undecan-9-yl)-1-ethyl-3-(isoxazol-3-yl)-1H-pyrazole-4-carboxamide], the Ki at human σ1 receptor and on human σ2/TMEM97 receptor was less than 0.1 µM in each case.

Regarding `CCn1nc(-c2cc(C)on2)c(C(=O)NC2CCC3(CC2)CCN(CCC(C)(C)C)CC3)c1Cl` [Example 143, 5-Chloro-N-(3-(3,3-dimethylbutyl)-3-azaspiro[5.5]undecan-9-yl)-1-ethyl-3-(5-methylisoxazol-3-yl)-1H-pyrazole-4-carboxamide], the Ki on human σ1 receptor and on human σ2/TMEM97 receptor was less than 0.1 µM each time.

As to `Cc1cc(-c2nn(C)c(Cl)c2C(=O)N2CC3(CCCN(CCC(C)(C)C)C3)C2)no1` [Example 144, (5-Chloro-1-methyl-3-(5-methylisoxazol-3-yl)-1H-pyrazol-4-yl)(6-(3,3-dimethylbutyl)-2,6-diazaspiro[3.5]nonan-2-yl)methanone], the Ki at human σ1 receptor is 0.5 to 1 µM; on human σ2/TMEM97 receptor, 0.1 to 0.5 µM.

With `CCn1cc(-c2nn(C)c(Cl)c2C(=O)NC2CC3(CCN(CCC(C)(C)C)CC3)C2)cn1` [Example 145, 5-Chloro-N-(7-(3,3-dimethylbutyl)-7-azaspiro[3.5]nonan-2-yl)-1′-ethyl-1-methyl-1H,1′H-[3,4′-bipyrazole]-4-carboxamide], the inhibitory constant (Ki) on human σ1 receptor is 0.5 to 1 µM; on human σ2/TMEM97 receptor it was less than 0.1 µM.

Consider `CCn1cc(-c2nn(C)c(Cl)c2C(=O)NC2CCC3(CC2)CCN(CCC(C)(C)C)CC3)cn1` [Example 146, 5-Chloro-N-(3-(3,3-dimethylbutyl)-3-azaspiro[5.5]undecan-9-yl)-1′-ethyl-1-methyl-1H,1′H-[3,4′-bipyrazole]-4-carboxamide], for which the Ki on human σ1 receptor is 0.5 to 1 µM; on human σ2/TMEM97 receptor, less than 0.1 µM.

As to `Cn1nc(-c2cccc(C(F)(F)F)n2)c(C(=O)NC2CCC3(CC2)CCN(CCC(C)(C)C)CC3)c1Cl` [Example 147, 5-Chloro-N-(3-(3,3-dimethylbutyl)-3-azaspiro[5.5]undecan-9-yl)-1-methyl-3-(6-(trifluoromethyl)pyridin-2-yl)-1H-pyrazole-4-carboxamide], the Ki at human σ1 receptor and on human σ2/TMEM97 receptor was less than 0.1 µM throughout.

For the compound `Cc1cccc(-c2nn(C)c(Cl)c2C(=O)NC2CCC3(CC2)CCN(CCC(C)(C)C)CC3)n1` [Example 148, 5-Chloro-N-(3-(3,3-dimethylbutyl)-3-azaspiro[5.5]undecan-9-yl)-1-methyl-3-(6-methylpyridin-2-yl)-1H-pyrazole-4-carboxamide], the Ki on human σ1 receptor and at human σ2/TMEM97 receptor was less than 0.1 µM each time.
